# Assay results: US4315017A, “Triazole derivatives” (priority 1978, dated 1982)
# Several values for one entry are separate records, joined by “and”; a condition that tells them apart may be missing. Equal values may be shown once.
# Assays:
# Format in all cases: in vivo
# [1] = test system: houseflies (Musca domestica); test: Synergistic action on houseflies, dip experiment; conditions: single substance; active ingredient concentration in %
# Protocol: Synergistic action on houseflies (Musca domestica; dip experiment)
# 100 ml of aqueous active ingredient formulations (active ingredient concentration in %) is poured over 20 adult houseflies (Musca domestica) on a filter in a nutsch (15 cm in diameter). A gauze lid prevents the animals from surfacing during treatment. After 5 seconds the formulation is filtered off and the flies are transferred to clean Petri dishes (10 cm in diameter) on the bottom of which a round filter paper has been placed.
# The animals in supine position are counted after 4 and 24 hours.
# [2] = test system: oriental cockroaches (Blatta orientalis); test: Synergistic action on oriental cockroaches, treated jar bottom; conditions: single substance; kill rate after 48 hours
# Protocol: Synergistic action on oriental cockroaches (Blatta orientalis)
# After the solvent has evaporated, 5 adult cockroaches (Blatta orientalis) are placed in each jar, and the kill rate is determined after 48 hours.
# The application rates are in logarithmic progression and permit a dose-effect curve to be drawn; the LD50 is determined graphically and serves as a basis for assessment.
# [3] = test system: houseflies (Musca domestica); test: Synergistic action on houseflies; continuous contact (Petri dish); conditions: single substance; kill rate after 4 hours
# Protocol: Synergistic action on houseflies (Musca domestica); continuous contact
# Both covers and bottoms of Petri dishes 10 cm in diameter are lined with a total per dish of 2 ml of acetonic solutions of the active ingredients. After the solvent has evaporated (about 30 mins.), 10 flies are introduced into each dish.
# The kill rate is determined after 4 hours and the LD50 is determined graphically.
# [4] = test system: granery weevils (Sitophilus granarius); test: Synergistic action on granary weevils (treated Petri dishes); conditions: single substance; 4 hours exposure, kill rate after 24 hours
# Protocol: Synergistic action on granery weevils (Sitophilus granarius)
# Petri dishes 10 cm in diameter are lined with acetonic solutions of the active ingredients. After the solvent has evaporated, 50 granary weevils are placed in each dish.
# After 4 hours, the weevils are transferred to untreated vessels. The kill rate is determined after 24 hours, by counting how many weevils are, after this period has elapsed, capable of leaving an untreated cardboard dish (40 mm in diameter, 10 mm high) within 60 minutes.
# [5] = test system: houseflies (Musca domestica); test: Contact action on houseflies (application to ventral abdomen); conditions: single substance; kill rate after 4 hours
# Protocol: Contact action on houseflies (Musca domestica)
# 1 μl of the active ingredient dissolved in acetone is administered to the ventral abdomen of 4-day old imagoes under slight CO2 narcosis. 20 animals treated in the same way are then placed in a cellophane bag having a volume of approximately 500 ml.
# After 4 hours the kill rate is determined, a dose-mortality curve is drawn from the different concentrations, and the LD50 is worked out.
Molecule,LD 50 after 4 hours [1] [%],LD 50 after 24 hours [1] [%],LD 50 [2] [mg],LD 50 [3] [mg],LD 50 [4],LD 50 [5] [μg/fly]
"Cc1nc(N(C)C)nc(OC(=O)N(C)C)c1C [Pirimicarb, 2-dimethylamino-5,6-dimethyl-4-pyrimidinyl-N,N-dimethylcarbamate, reference compound]",0.05,0.04,> 30,–,–,–
Fc1ccc(C=Cn2cncn2)cc1 [No. 4],–,–,> 5.0,> 2.0,–,–
CCc1ccc(Cn2cncn2)cc1 [No. 10],–,–,> 2.0,–,> 2 mg,–
CC(c1ccccc1)n1cncn1 (centres unmarked) [No. 7],–,–,> 2.0,–,–,–
"C=CCC1=C(C)C(OC(=O)C2C(C=C(C)C)C2(C)C)CC1=O (mixture of isomers) [Allethrin, DL-2-allyl-3-methylcyclopenten-2-on-(1)-yl-(4)-DL-cis,trans-chrysanthemate, reference compound]",–,–,0.11,–,–,–
Cc1ccc(Cn2cncn2)cc1 [No. 9],–,–,> 2.0,–,> 4 mg,–
C=C(Cn1cncn1)c1ccccc1 [No. 8],–,–,9.0,–,> 2 mg,–
ClC(Cn1cncn1)c1ccccc1 (centres unmarked) [No. 2],> 0.2,0.1,> 5.0,0.2,–,–
"CCOC(=O)CC(SP(=S)(OC)OC)C(=O)OCC (centres unmarked) [Malathion, reference compound]",–,–,0.12,–,–,–
"2,5-diethylphenyl-N-methylcarbamate [Fenethcarb, reference compound]",–,–,0.45,–,–,–
Clc1ccc(C=Cn2cncn2)c(Cl)c1 [No. 3],0.2,0.05,> 5.0,–,–,–
c1ccc(CCCn2cncn2)cc1 [No. 5],> 0.2,0.05,> 2.0,–,> 2 mg,> 10
C(=Cc1ccccc1)Cn1cncn1 [No. 6],> 0.2,0.07,9.0,–,> 2 mg,–
CC(C)(C)c1ccc(Cn2cncn2)cc1 [No. 11],–,–,> 10.0,–,> 2 mg,–
ClC(Cn1cncn1)c1ccccc1 (centres unmarked) [No. 1],0.085,0.05,> 5.0,> 2.0,> 2 mg and > 1 mg,–
